Tests used:
Test in all cases: relative viability (nuclei count vs DMSO), 5 days (fraction); higher = more cells survive
[1] = compound: C=CC(=O)N1CCC[C@@H](n2nc(-c3ccc(Oc4ccccc4)cc3)c3c(N)ncnc32)C1 [Ibrutinib] + CC(C)C[C@H](NC(=O)[C@H](Cc1ccccc1)NC(=O)c1cnccn1)B(O)O [Bortezomib] (partner 0.002 µM)
How it was run: (§1)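 Lung cancer cell lines were seeded in 1536-well plates and dosed by pin tool the next day, with either a single drug or a fixed anchor-drug dose combined with five library-drug doses (not always all listed) spaced in √10 steps. Five days later, one step fixed the cells and stained their nuclei (final 0.05% Triton X-100, 1% formaldehyde, 1 ug/ml Hoechst), and nuclei were counted on 4× images. Relative viability is the nuclei count in treated wells divided by the count in vehicle wells, and each value is the median of duplicate plates.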

[2] = compound: C=CC(=O)N1CCC[C@@H](n2nc(-c3ccc(Oc4ccccc4)cc3)c3c(N)ncnc32)C1 [Ibrutinib] + COc1cc2c(Oc3ccc(NC(=O)C4(C(=O)Nc5ccc(F)cc5)CC4)cc3F)ccnc2cc1OCCCN1CCOCC1 [Foretinib] (partner 0.25 µM)
How it was run: as §1

[3] = compound: C=CC(=O)N1CCC[C@@H](n2nc(-c3ccc(Oc4ccccc4)cc3)c3c(N)ncnc32)C1 [Ibrutinib] + C[C@]1(O)C[C@@H](c2nc(-c3ccc4ccc(-c5ccccc5)nc4c3)c3c(N)nccn32)C1 [Linsitinib] (partner 1 µM)
How it was run: as §1

[4] = compound: C=CC(=O)Nc1cc(-n2c(=O)ccc3cnc4ccc(-c5ccc(NS(C)(=O)=O)cc5)cc4c32)ccc1C [BMX-IN-1] + COc1cc2c(Oc3ccc(NC(=O)C4(C(=O)Nc5ccc(F)cc5)CC4)cc3F)ccnc2cc1OCCCN1CCOCC1 [Foretinib] (partner 0.25 µM)
How it was run: as §1

Cell Line	relative viability ([1]; first compound 0.005 µM)	relative viability ([1]; first compound 0.01581 µM)	relative viability ([1]; first compound 0.05 µM)	relative viability ([1]; first compound 0.1581 µM)	relative viability ([1]; first compound 0.5 µM)	relative viability ([2]; first compound 0.005 µM)	relative viability ([2]; first compound 0.01581 µM)	relative viability ([2]; first compound 0.05 µM)	relative viability ([2]; first compound 0.1581 µM)	relative viability ([2]; first compound 0.5 µM)	relative viability ([3]; first compound 0.005 µM)	relative viability ([3]; first compound 0.01581 µM)	relative viability ([3]; first compound 0.05 µM)	relative viability ([3]; first compound 0.1581 µM)	relative viability ([3]; first compound 0.5 µM)	relative viability ([4]; first compound 0.02 µM)	relative viability ([4]; first compound 0.2 µM)	relative viability ([4]; first compound 0.6325 µM)	relative viability ([4]; first compound 2 µM)
201T	1.05	1.06	1.13	1.09	1.09	1.02	1	0.965	1.03	1.08	0.961	1.05	1.01	1.06	0.907	1.25	1.14	0.912	1.12
A549						0.878	0.852	1.03	0.984	0.877		0.58	0.519	0.505	0.377	1.14	0.971	1.2	0.982
A-427	0.906	0.962	0.981	0.985	0.916	1.01	0.944	1.04		1.02	0.986	1.09	1.15	1.1	1.12	1.1	1.24	1.02	0.97
ABC-1	0.36	0.271	0.33	0.33	0.306	1.27	0.961	1.28	1.09	0.897	0.822	0.736	0.795	0.879	0.644	1.21	0.999	1.19	0.955
BEN	0.54	0.828	0.667	0.57	0.572		0.724	0.418	0.444	0.672	0.766	0.885	0.853	0.851	0.883	0.635	0.698	0.619	0.819
CAL-12T	0.988	0.915	0.836	0.884	0.693	1.11	0.958	0.981	1.14	1.19	0.805	0.724	0.627	0.739	0.472	1.28	1.2	1.31	1.1
COR-L23	1.13	0.992	0.983	0.917	1.1	1.08	0.886	1.04	0.926	1	1.16	0.867	0.973	0.986		1.18	1.1	1.19	0.914
COR-L 105	0.514	0.607	0.512	0.683	0.348	1	0.933	0.969	1.04	0.602	0.739	0.811	0.709	0.914	0.321	1.12	1.2	1.37	1.17
Calu-6	0.992	0.959	0.934	1.11	0.932	0.961	0.853	0.918	0.844	0.826	0.991		0.928	1.04	0.888	0.918	1.07	0.908	0.776
ChaGo-K-1	0.906	1.04	0.927		0.959	0.842	0.902	0.937	0.954	0.853						1.09	0.938	0.821	0.915
EBC-1	0.693	0.524	0.555	0.668	0.486	0.0898	0.102	0.102	0.0945	0.098	0.848	1	0.825	0.864	0.952	0.0974	0.114	0.144	0.101
EKVX	0.894	0.929	0.975	0.925	0.489	0.835	0.762	0.802	0.617	0.232	0.893	0.944	1.12	1.05	0.613	0.784	0.902	0.965	0.893
EMC-BAC-2	1	1	0.997	1.05	1.01	0.88	0.894		0.969	0.797	0.777	0.703	0.637	0.795	0.586	1.04	0.984	1.06	0.985
EPLC-272H		0.881	0.924	0.839	0.753	0.675	0.474	0.409	0.584	0.434		1.07	1.31	1.25	0.771	0.851	0.759	0.622	0.592
H3255	0.583	0.889	0.51	0.617	0.313	0.66	0.986	0.711	0.993	0.53	0.925	0.772	0.685	1.06	0.227	0.859	0.989	0.925	0.99
HARA	1.02	1.14	0.987	0.976	0.937	0.917	0.717	0.705	0.933	0.403	1.09	0.818	0.751	0.904		1.43	1.27	0.936	0.799
HCC-15	1.13				1.1	0.978	0.929	1.08	1.08	1.01	0.883	0.85	0.935	0.89	0.835	1.24	1.13	1.11	1.02
HCC-44	0.896	0.881	0.987	0.908	0.946						0.682	0.591	0.673	0.732	0.645				
